This is an account of results in publication PMC5826112, “Intrapulmonary Pharmacokinetics of Relebactam, a Novel β-Lactamase Inhibitor, Dosed in Combination with Imipenem-Cilastatin in Healthy Subjects” (Antimicrobial Agents and Chemotherapy, 2018).

On the set-up of data set [1]: method as in PMID 26349830. The conditions noted are these: healthy adults, meropenem-RPX7009; cited from earlier work.
On the set-up of data set [2]: method as in PMID 7831630. The conditions noted are these: orally administered amoxicillin-clavulanate; cited from earlier work.
The conditions of data set [3]: healthy adults, ceftolozane-tazobactam; cited from earlier work.
Details of data set [4]: method as in PMID 17039351. Conditions: multiple-dose, adult patients with ventilator-associated pneumonia; cited from earlier work.
The conditions of data set [5]: no reference given; cited from earlier work.
The nature of data set [6]: Intrapulmonary (ELF, AC) and plasma pharmacokinetics after multiple-dose IV relebactam with imipenem-cilastatin, bronchoscopy/BAL, noncompartmental analysis. Conditions: for t1/2 (terminal half-life) / half-life / AUC(0-inf) / Cmax / Tmax / AUC(0-t): mean profile; for half-life: read-out: t1/2 (terminal half-life) (converted); for AUC(0-inf): noncompartmental analysis; for AUC(0-t): read-out: AUC0–3; for concentrations in AC (alveolar cells): result in words. It counts as in vivo, human (healthy subjects). The method, then: Dosing and administration of imipenem-cilastatin were carried out in a manner consistent with the recommended labeled posology. BAL fluid specimens were obtained during bronchoscopy for the determination of the relebactam and imipenem concentrations in the ELF and AC. Four aliquots of normal saline (50 ml each) were sequentially instilled and aspirated after each instillation. The first aspirate was discarded, and the remaining aspirates were pooled and used to obtain urea and drug level measurements. Aliquots were obtained for cell count/differential, and the remainder of the pooled aspirates was centrifuged. The liquid aspirate and cell pellet were separated and stored at −70°C. The supernatant was sent for urea and drug level measurements. Blood samples were collected prior to the first and fifth doses of study drug for the determination of relebactam and imipenem plasma concentrations. Blood samples were also collected during the bronchoscopy/BAL procedure for the determination of relebactam, imipenem, and urea concentrations. Relebactam and imipenem levels in plasma, pulmonary ELF, and AC were measured simultaneously via acetonitrile protein precipitation and hydrophilic interaction liquid chromatography (HILIC) with detection via liquid chromatography-tandem mass spectrometry (LC-MS/MS). The system consisted of a Waters Acquity ultraperformance liquid chromatograph (Waters Corp., Milford, MA) and an API 4000 or 5000 triple-quadrupole tandem mass spectrometer (Sciex, Framingham, MA) equipped with a turbo-ion spray interface and operated in the positive ionization mode. The multiple reaction monitoring (MRM) transitions monitored were m/z 349 → 269 for relebactam, m/z 300 → 98 for imipenem, and m/z 354 → 274 and m/z 307 → 98 for their respective internal standards. […] The ELF volumes recovered by BAL were determined by using urea as an endogenous marker to provide a dilution ratio by measurement of urea concentrations in the BAL fluid and serum ([33]). […] The mean value for each time point was used to conduct the noncompartmental analysis using Phoenix (version 6.3) software (Pharsight Corporation, Mountain View, CA) and to calculate the values of the PK parameters on the basis of the mean profile in each matrix.

On the set-up of data set [7]: method as in PMID 21300830. The conditions noted are these: patients with ventilator-associated pneumonia; cited from earlier work.
For data set [8] the following is noted: critically ill patients, multiple doses of piperacillin-tazobactam; cited from earlier work.
[9] abbreviates: both sexes, human, intravenous, ELF, same regimen.
Where [10] appears, read: both sexes, human, intravenous, plasma, same regimen.

The structures appear in SMILES notation. “Also recorded” adds a separate entry of the source. Where two headings read alike, the source gives them in different places.

`O=C(O)C[C@@H]1CC[C@H](NC(=O)Cc2cccs2)B(O)O1` [RPX7009]: in data set [1], the “mean penetration ratio based on AUC” value is 53%.
Regarding `CC1(C)S[C@@H]2[C@H](NC(=O)[C@H](N)c3ccc(O)cc3)C(=O)N2[C@H]1C(=O)O` [amoxicillin], the “concentrations in ELF relative to those in plasma” value in data set [2] is on record as “less than 20%”.
As to `Cn1c(N)c(NC(=O)NCCN)c[n+]1CC1=C(C(=O)O)N2C(=O)[C@@H](NC(=O)/C(=N\OC(C)(C)C(=O)[O-])c3nsc(N)n3)[C@H]2SC1` [ceftolozane], the “ELF/plasma AUC ratio” value in data set [3] was 48%.
For `O=C(O)[C@H]1/C(=C/CO)O[C@@H]2CC(=O)N21` [clavulanate], in data set [2], the “concentrations in ELF relative to those in plasma” value was “less than 20%”.
For `C[C@@H](O)[C@H]1C(=O)N2C(C(=O)O)=C(S[C@@H]3CN[C@H](C(=O)Nc4cccc(C(=O)O)c4)C3)[C@H](C)[C@H]12` [ertapenem], the “ratios of ELF concentrations to total plasma concentrations, median” value in data set [4] is given as 0.32.
Broadly, the AUC(0-inf) is the area under the concentration-time curve extrapolated to infinity. In general, Cmax refers to the highest concentration seen after dosing. By Tmax is commonly meant the time from dosing to the highest level. As for `C[C@@H](O)[C@H]1C(=O)N2C(C(=O)O)=C(SCCN=CN)C[C@H]12` [imipenem], the “unbound in plasma (free fraction)” value in data set [5] was 80%. For the same molecule, the “t1/2 (terminal half-life)” value in data set [6] (ELF, same regimen) is 61.8 min; in data set [6] (plasma, same regimen), 57 min. For the same molecule, the half-life in data set [6] (both sexes, human, ELF, intravenous, ELF, same regimen) was 60 min; in data set [6] (both sexes, human, plasma, intravenous, plasma, same regimen) it was 60 min. In addition, in data set [6] (both sexes, human, ELF, intravenous, same regimen, 0.5 h after last dose, n=4, read-out: concn in ELF, GM), the concentration at 0.5 h was found to be 32.1 µM. In data set [6] (both sexes, human, ELF, intravenous, same regimen, 1 h after last dose, n=4, read-out: concn in ELF, GM), the concentration at 1 h came out at 20.3 µM. The concentration at 1.5 h in data set [6] (both sexes, human, ELF, intravenous, same regimen, 1.5 h after last dose, n=4, read-out: concn in ELF, GM) came to 16.5 µM. The concentration at 3 h in data set [6] (both sexes, human, ELF, intravenous, same regimen, 3 h after last dose, n=4, read-out: concn in ELF, GM) is 5.99 µM. The Kp in data set [6] (both sexes, human, ELF/plasma, intravenous, calculated as 100 · ELF AUC0–∞/plasma AUC0–∞/0.8, adjusted for protein binding (80% unbound in plasma, 100% free in ELF), read-out: Adjusted ELF/plasma AUC0–∞ ratio) was 0.55; in data set [6] (both sexes, human, ELF/plasma, intravenous, calculated as 100 · ELF AUC0–∞/plasma AUC0–∞, mean profiles, read-out: ELF/plasma AUC0–∞ ratio), 0.442; in data set [6] (both sexes, human, ELF/plasma, intravenous, same regimen, 0.5 to 3 h after last dose, read-out: GMRs for ELF/plasma concentrations, range across time points), 0.32 to 0.55. Besides, in data set [6] (both sexes, human, ELF/plasma, intravenous, same regimen, 1.0 h after last dose, n=4, read-out: ELF/plasma concn GMR (90% CI)), the Kp at 1 h came out at 0.36. Besides, in data set [6] (both sexes, human, ELF/plasma, intravenous, same regimen, 1.5 h after last dose, n=4, read-out: ELF/plasma concn GMR (90% CI)), the Kp at 1.5 h came out at 0.55. Also, in data set [6] (both sexes, human, ELF/plasma, intravenous, same regimen, 3.0 h after last dose, n=4, read-out: ELF/plasma concn GMR (90% CI)), the Kp at 3 h was found to be 0.5. Also, in data set [6] (both sexes, human, ELF/plasma, iv, healthy subjects, relebactam 250 mg with imipenem-cilastatin 500 mg IV every 6 h, 5 doses, 0.5 h after last dose, n=4, read-out: ELF/plasma concn GMR (90% CI)), the Kp at 0.5 h was determined as 0.32. The results for the AUC(0-inf) in data set [6] (setting [9]) and in data set [6] (setting [10]) were 57.4 µM·h and 130 µM·h, respectively. In addition, the Cmax in data set [6] (setting [9]) was 32.6 µM; in data set [6] (setting [10]), 99.6 µM. For the same molecule, the time of peak concentration (Tmax) in data set [6] (setting [9]) and in data set [6] (setting [10]) was 30 min throughout. The AUC(0-t) in data set [6] (setting [9]) stood at 48.4 µM·h; in data set [6] (setting [10]) it was 114 µM·h. Besides, the “Adjusted ELF/plasma AUC0–∞ ratio” value in data set [6] (calculated as 100 · ELF AUC0–∞/plasma AUC0–∞/0.8, adjusted for protein binding (80% unbound in plasma, 100% free in ELF)) was 55.2%. Further, the “concentrations in AC (alveolar cells)” value in data set [6] (same regimen) is recorded as “below the limit of quantitation”; in data set [6] (same regimen, listed as Imipenem), “undetectable in the majority of patients; also recorded: not detected”.
With `C[C@@H](O)[C@H]1C(=O)N2C(C(=O)O)=C(S[C@@H]3CN[C@H](C(=O)N(C)C)C3)[C@H](C)[C@H]12` [meropenem], in data set [1], the “mean penetration ratio based on AUC” value is given as 63%. Also, the “ELF/plasma concentration ratio estimated by population modeling” value in data set [7] was 30%.
For the molecule `C[C@]1(Cn2ccnn2)[C@H](C(=O)O)N2C(=O)C[C@H]2S1(=O)=O` [tazobactam], the “ELF/plasma AUC ratio” value in data set [3] is on record as 44%. Also, in data set [8], the “mean concentrations in ELF relative to total concentrations in plasma” value is roughly 91%.
